From article PMC5074076, “Novel minimal physiologically-based model for the prediction of passive tubular reabsorption and renal excretion clearance” (European Journal of Pharmaceutical Sciences, 2016)

Assays:
[1] = cited from earlier work; for CLR: healthy adult subjects, overall weighted mean of literature values, absolute (not normalised), ref Supplementary Results Table S2.1; for Overall weighted mean CLR: healthy subjects, plasma and urine data from same subjects, normalised for subject weight and body surface area where necessary; for Overall weighted mean CLR / CLR Observed: ref Table S2.1; for CLR Observed: overall weighted mean of values obtained from a literature survey
[2] = Observed clearance ratio and fraction reabsorbed (Freab, Freab′) calculated from CLR, fu,p and GFR; settings: for Apparent Freab / Apparent Freab’: calculated from observed CLR, fu,p and GFR; for Freab: observed/apparent, 1 - CLR/(GFR x fu,p), GFR 120 mL/min
Method: The clearance ratio was calculated from clinical data using Eqs. […] For the remaining drugs the fraction reabsorbed (Freab) was calculated using Eq.
GFR values for healthy subjects may vary as a result of biological as well as inter-individual variation and also the method of measurement. […] Individual GFR values for subjects in clinical trials databases were generally not available.
In the proposed model, the nephron is represented as five compartments, namely the glomerulus and four tubular regions, as depicted in Fig. 1. The tubular compartments in the model, listed in anatomical order starting from the glomerulus are: the proximal tubule (PT), the loop of Henle (LoH), the distal tubule (DT) and the collecting duct (CD). […] The relationship between Freab′ and Freab is shown in Eq. (11). The predicted overall Freab′ was calculated from the predicted Freab′ in each (i) tubular region (Freab,i′), as shown in Eq. (12).

For `Cc1cccc(C)c1OCC(C)N` (stereo not drawn) [Mexiletine], the CLR [1] is given as 71.6 mL/min, the “Overall weighted mean CLR” value [1] is given as 71.6 mL/min and the “CLR Observed” value [1] is given as 71.61 mL/min. The “Apparent Freab” value [2] was -0.252 and the “Apparent Freab’” value [2] was -0.254.

In the case of `CC(=O)NC[C@H]1CN(c2ccc(N3CCOCC3)c(F)c2)C(=O)O1` [Linezolid], the CLR [1] is given as 39.5 mL/min, the “Overall weighted mean CLR” value [1] is given as 39.5 mL/min and the “CLR Observed” value [1] is given as 39.54 mL/min. The “Apparent Freab” value [2] was 0.576, the “Apparent Freab’” value [2] was 0.581 and the Freab [2] was 0.58.

In the case of `Cn1c(=O)c2c(ncn2C)n(C)c1=O` [Caffeine], the CLR [1] is given as 1.06 mL/min, the “Overall weighted mean CLR” value [1] is given as 1.1 mL/min and the “CLR Observed” value [1] is given as 1.06 mL/min. For the same compound, the “Apparent Freab” value [2] was 0.987, the “Apparent Freab’” value [2] was 0.995 and the Freab [2] was 0.99. The Freab ([2]; listed as caffeine) was at least 0.99.

In the case of `NC(=O)c1cnccn1` [Pyrazinamide], the “Overall weighted mean CLR” value [1] is listed as 2.0 mL/min.

For `Oc1ccc(/C=C/c2cc(O)cc(O)c2)cc1` [Resveratrol], the “Overall weighted mean CLR” value [1] is given as 16.6 mL/min.

In the case of `CC[C@H](C)C(=O)O[C@H]1C[C@H](O)C=C2C=C[C@H](C)[C@H](CC[C@@H](O)C[C@@H](O)CC(=O)O)[C@H]21` [Pravastatin], the “Overall weighted mean CLR” value [1] is given as 414.6 mL/min.

In the case of `CC(C)c1nc(N(C)S(C)(=O)=O)nc(-c2ccc(F)cc2)c1/C=C/[C@@H](O)C[C@@H](O)CC(=O)O` [Rosuvastatin], the “Overall weighted mean CLR” value [1] is given as 212.5 mL/min.

For `CCN(CC)CCNC(=O)c1ccc(NC(C)=O)cc1` [Acecainide], the “Overall weighted mean CLR” value [1] is listed as 226.7 mL/min.

In the case of `C[C@H]1O[C@@H](O[C@H]2[C@@H](O)C[C@H](O[C@H]3[C@@H](O)C[C@H](O[C@H]4CC[C@@]5(C)[C@H](CC[C@@H]6[C@@H]5C[C@@H](O)[C@]5(C)[C@@H](C7=CC(=O)OC7)CC[C@]65O)C4)O[C@@H]3C)O[C@@H]2C)C[C@H](O)[C@@H]1O` [Digoxin], the “Overall weighted mean CLR” value [1] is given as 151.1 mL/min.

For `Cc1cn([C@@H]2C[C@@H](O)[C@H](CO)O2)c(=O)[nH]c1=O` [Telbivudine], the “Overall weighted mean CLR” value [1] is listed as 116.7 mL/min.

For `C[C@H](Cn1cnc2c(N)ncnc21)OCP(=O)(O)O` [Tenofovir], the “Overall weighted mean CLR” value [1] is listed as 220.0 mL/min.

For `CC1(C)S[C@@H]2[C@H](NC(=O)[C@H](N)c3ccc(O)cc3)C(=O)N2[C@H]1C(=O)O` [Amoxicillin], the “Overall weighted mean CLR” value [1] is given as 167.0 mL/min.

For `CCCc1cc(=O)[nH]c(=S)[nH]1` [Propylthiouracil], the CLR [1] is listed as 3.20 mL/min, the “Overall weighted mean CLR” value [1] is listed as 3.2 mL/min and the “CLR Observed” value [1] is listed as 3.20 mL/min. The “Apparent Freab” value [2] was 0.833, the “Apparent Freab’” value [2] was 0.840 and the Freab [2] was 0.83.

In the case of `Cc1nnc(C(=O)NC(C)(C)c2nc(C(=O)NCc3ccc(F)cc3)c(O)c(=O)n2C)o1` [Raltegravir], the “Overall weighted mean CLR” value [1] is listed as 55.0 mL/min.

In the case of `Cc1onc(-c2c(F)cccc2Cl)c1C(=O)N[C@@H]1C(=O)N2[C@@H]1SC(C)(C)[C@@H]2C(=O)O` [Flucloxacillin], the “Overall weighted mean CLR” value [1] is given as 90.9 mL/min.

For `CO[C@@]1(NC(=O)C(C(=O)O)c2ccsc2)C(=O)N2[C@@H](C(=O)O)C(C)(C)S[C@@H]21` (stereo partly drawn) [Temocillin], the “Overall weighted mean CLR” value [1] is given as 39.8 mL/min.

In the case of `O=C(NC[C@H]1CN(c2ccc(N3CCOCC3=O)cc2)C(=O)O1)c1ccc(Cl)s1` [Rivaroxaban], the “Overall weighted mean CLR” value [1] is listed as 49.8 mL/min.

For `CCC(CC)O[C@@H]1C=C(C(=O)O)C[C@H](N)[C@H]1NC(C)=O` [Oseltamivir carboxylate], the “Overall weighted mean CLR” value [1] is given as 231.7 mL/min.

In the case of `CO[C@@]1(NC(=O)CSCC#N)C(=O)N2C(C(=O)O)=C(CSc3nnnn3C)CS[C@@H]21` [Cefmetazole], the “Overall weighted mean CLR” value [1] is listed as 110.2 mL/min.
